“And” between values parts separate entries of the source, which are not always exact repeats. Identical values can stand only once. Like-named read-outs stand apart in the source and are kept apart here. Blank lines part the entries; values can stand above or below the compound they belong to.
Assays:
[1] = tested on: end stage liver disease (ESLD) patients; assay: Model for End-Stage Liver Disease (MELD) score analysis in supplemented patients awaiting liver transplantation; assay type: in vivo, human
Excerpt: Vital organs for study included: cardiac muscle acquired from heart transplant recipients with end stage heart failure (TCP n=3, TE n=5); liver from transplant recipients with end-stage liver (TCP n=3, TE n=4); adipose acquired from abdominal adipose tissue of morbidly obese patients undergoing reconstructive plastic surgery (TCP n=4, TE n=5); and brain tissue from recalcitrant epilepsy patients requiring resection (TE n=4). Control brain samples were taken from autopsy participants donated to science and represent vitamin E concentrations of the general population, without dietary TE consumption (n=4). […] TCP gel capsules contained 200 mg of d-alpha-tocopherol. Vitamin E gel capsules were sealed in blister packs. To determine compliance, study participants mailed empty packages back to the clinic every two weeks. Participant supplementation compliance for the study was >90%. Random-effects linear regression was used to estimate the individual slope and intercepts of the MELD score pre- and post-supplementation for each subject. This was performed separately for TCP and TE supplementation groups. Random-effects regression takes into account the variability within participants due to repeated measures and the variability between participants in order to estimate the standard error. Due to the serendipitous nature of the MELD score findings the length of supplementation was not standardized between patients awaiting liver transplantation. The time scale is in days relative to beginning of the patient's vitamin E supplementation. […] The percent change in the slope from pre- to post-supplementation was calculated. Summary statistics are presented for pre- and post-slope and the percent change across TE and TCP supplementation groups. Wilcoxon rank-sum was used to test differences in slope and percent change in slope between TCP and TE. Wilcoxon signed-rank test was used to compare pre- to post-supplementation.

[2] = human, in vivo
[3] = Heart (cardiac muscle) vitamin E concentration, Surgical Patients Group; settings: for Heart vitamin E concentration, 25th percentile / Heart vitamin E concentration, 50th percentile / Heart vitamin E concentration, 75th percentile / Heart vitamin E concentration, mean: 400 mg daily oral
[4] = Brain vitamin E concentration, Surgical Patients Group; settings: for Brain vitamin E concentration, 25th percentile / Brain vitamin E concentration, 50th percentile / Brain vitamin E concentration, 75th percentile / Brain vitamin E concentration, mean: n = 4
[5] = Liver vitamin E concentration, Surgical Patients Group
[6] = Skin biopsy vitamin E concentration following oral TE supplementation, Healthy Participants Group; settings: TE 400 mg daily, 12 wk vs baseline
[7] = Abdominal adipose vitamin E concentration, Surgical Patients Group; settings: for Adipose vitamin E concentration, 25th percentile / Adipose vitamin E concentration, 50th percentile / Adipose vitamin E concentration, 75th percentile / Adipose vitamin E concentration, mean: 400 mg daily oral
[8] = human, in vivo; remark: listed apart in the source
[9] = human, in vivo; remark: listed apart in the source
HMG-CoA reductase = biological target: T1, HMG-CoA reductase (Homo sapiens, UniProt P04035); settings: hepatic enzyme responsible for cholesterol synthesis; background statement; cited from earlier work
T1 sequence (P04035 1-888): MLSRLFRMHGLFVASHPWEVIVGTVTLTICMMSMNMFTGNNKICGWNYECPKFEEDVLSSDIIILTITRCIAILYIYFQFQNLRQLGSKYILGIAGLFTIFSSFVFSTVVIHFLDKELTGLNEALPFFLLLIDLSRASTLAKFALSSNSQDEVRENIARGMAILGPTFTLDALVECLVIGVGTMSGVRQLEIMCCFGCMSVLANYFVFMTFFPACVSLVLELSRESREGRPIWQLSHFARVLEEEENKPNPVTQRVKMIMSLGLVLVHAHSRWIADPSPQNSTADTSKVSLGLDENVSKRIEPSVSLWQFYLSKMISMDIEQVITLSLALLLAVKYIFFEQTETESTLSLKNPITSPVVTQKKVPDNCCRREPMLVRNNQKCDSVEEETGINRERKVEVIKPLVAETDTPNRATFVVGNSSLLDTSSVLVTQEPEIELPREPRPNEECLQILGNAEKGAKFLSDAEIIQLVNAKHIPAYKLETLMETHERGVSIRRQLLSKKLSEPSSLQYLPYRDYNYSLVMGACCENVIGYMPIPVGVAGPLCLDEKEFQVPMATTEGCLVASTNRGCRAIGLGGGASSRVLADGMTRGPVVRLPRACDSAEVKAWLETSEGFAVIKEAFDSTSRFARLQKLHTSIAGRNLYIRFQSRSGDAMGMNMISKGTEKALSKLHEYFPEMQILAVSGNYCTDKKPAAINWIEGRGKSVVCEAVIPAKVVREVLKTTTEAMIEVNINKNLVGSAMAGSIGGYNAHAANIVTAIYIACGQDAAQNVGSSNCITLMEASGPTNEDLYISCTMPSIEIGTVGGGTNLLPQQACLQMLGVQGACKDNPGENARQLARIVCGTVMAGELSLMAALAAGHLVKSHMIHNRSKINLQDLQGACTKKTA

[10] = biological target: T2, Tocopherol transfer protein (TTP) (Homo sapiens, UniProt P49638); settings: background statement; cited from earlier work
T2 sequence (P49638 1-278): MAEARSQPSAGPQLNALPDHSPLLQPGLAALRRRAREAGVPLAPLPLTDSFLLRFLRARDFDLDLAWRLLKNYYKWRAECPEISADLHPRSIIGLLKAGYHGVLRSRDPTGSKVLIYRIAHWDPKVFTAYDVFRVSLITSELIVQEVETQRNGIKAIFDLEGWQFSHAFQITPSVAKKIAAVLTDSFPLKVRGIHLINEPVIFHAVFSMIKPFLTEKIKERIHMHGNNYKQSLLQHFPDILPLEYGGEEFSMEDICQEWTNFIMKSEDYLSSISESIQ

[11] = individual patient, 400 mg daily oral
[12] = TE supplemented, 400 mg daily oral
[13] = TE supplemented, 400 mg daily oral, n = 4

Compound: Cc1c(C)c2c(c(C)c1O)CC[C@@](C)(CCC[C@H](C)CCC[C@H](C)CCCC(C)C)O2 [TCP, d-alpha-tocopherol]
- participants with a reduction (improvement) in MELD score ([1]; ESLD participants, oral supplementation 400 mg daily): 20%
- MELD score Pre-supplement Intercept ([1]; individual patient awaiting liver transplantation, before supplementation (baseline)): 16.4 (2×) and 15.7 and 16.5 and 16.9
- MELD score Post-supplement Intercept [1, 11]: 14.2 (3×) and 14.0 and 14.4
- MELD score slope % Change (pre vs. post) [1, 11]: 372% and −155% and 1028% and 619% and 598%
- MELD score Post-supplement Slope ([1]; individual patient, 400 mg daily oral, slope multiplied by 10,000, time in days): 483 and −60 and 1139 and 702 and 712
- MELD score Pre-supplement Slope ([1]; individual patient, before supplementation (baseline), slope multiplied by 10,000, time in days): 102 (2×) and 109 and 101 and 98

Compound: Cc1c(C)c2c(c(C)c1O)CC[C@@](C)(CCC[C@H](C)CCC[C@H](C)CCCC(C)C)O2 [αTCP, d-alpha-tocopherol]
- Brain vitamin E concentration, 25th percentile [2]: 41.1 nmol/g
- Brain vitamin E concentration, 50th percentile [2]: 43.3 nmol/g
- Brain vitamin E concentration, 75th percentile [2]: 60.0 nmol/g
- Brain vitamin E concentration, mean [2]: 50.5 nmol/g

- Brain vitamin E concentration, 25th percentile [2]: 0.98 nmol/g
- Brain vitamin E concentration, 50th percentile [2]: 2.51 nmol/g
- Brain vitamin E concentration, 75th percentile [2]: 10.6 nmol/g
- Brain vitamin E concentration, mean [2]: 5.77 nmol/g
Compound: Cc1c(O)cc2c(c1C)O[C@](C)(CCC[C@H](C)CCC[C@H](C)CCCC(C)C)CC2 [γTCP]

Compound: CC(C)=CCC/C(C)=C/CC/C(C)=C/CC[C@]1(C)CCc2cc(O)c(C)c(C)c2O1 [γTE, d-gamma-tocotrienol]
- heart muscle level, TE supplemented compared with participants receiving TCP alone ([3]; 400 mg daily): significantly higher
- Heart vitamin E concentration, 25th percentile ([3]; TCP supplemented, n = 3): 0.02 nmol/g
- Heart vitamin E concentration, 50th percentile ([3]; TCP supplemented, n = 3): 0.23 nmol/g
- Heart vitamin E concentration, 75th percentile ([3]; TCP supplemented, n = 3): 0.26 nmol/g
- Heart vitamin E concentration, mean ([3]; TCP supplemented, n = 3): 0.17 nmol/g
- Heart vitamin E concentration, 25th percentile ([3]; TE supplemented, n = 5): 2.07 nmol/g
- Heart vitamin E concentration, 50th percentile ([3]; TE supplemented, n = 5): 6.70 nmol/g
- Heart vitamin E concentration, 75th percentile ([3]; TE supplemented, n = 5): 14.4 nmol/g
- Heart vitamin E concentration, mean ([3]; TE supplemented, n = 5): 8.85 nmol/g
- Brain vitamin E concentration, 25th percentile ([4]; TCP supplemented): 0.03 nmol/g
- Brain vitamin E concentration, 50th percentile ([4]; TCP supplemented): 0.05 nmol/g
- Brain vitamin E concentration, 75th percentile ([4]; TCP supplemented): 0.08 nmol/g
- Brain vitamin E concentration, mean ([4]; TCP supplemented): 0.06 nmol/g
- brain concentration, TE supplemented compared with control (cadaveric) brain ([4]; TE 400 mg daily): significantly elevated
- Brain vitamin E concentration, 25th percentile [4, 12]: 0.47 nmol/g
- Brain vitamin E concentration, 50th percentile [4, 12]: 0.70 nmol/g
- Brain vitamin E concentration, 75th percentile [4, 12]: 1.19 nmol/g
- Brain vitamin E concentration, mean [4, 12]: 0.83 nmol/g
- liver concentration, TE supplemented compared with TCP supplemented patients ([5]; 400 mg daily): increased
- Liver vitamin E concentration, 25th percentile [5, 13]: 0.17 nmol/g
- Liver vitamin E concentration, 50th percentile [5, 13]: 0.45 nmol/g
- Liver vitamin E concentration, 75th percentile [5, 13]: 1.1 nmol/g
- Liver vitamin E concentration, mean [5, 13]: 0.61 nmol/g
- effect of oral TE supplementation on skin concentration [6]: significantly elevated
- Adipose vitamin E concentration, 25th percentile ([7]; TCP supplemented, n = 4): 0.71 nmol/g
- Adipose vitamin E concentration, 50th percentile ([7]; TCP supplemented, n = 4): 1.72 nmol/g
- Adipose vitamin E concentration, 75th percentile ([7]; TCP supplemented, n = 4): 3.21 nmol/g
- Adipose vitamin E concentration, mean ([7]; TCP supplemented, n = 4): 1.96 nmol/g
- adipose concentration relative to controls ([7]; TE supplemented vs controls, P<0.05): ~10 fold
- Adipose vitamin E concentration, 25th percentile ([7]; TE supplemented, n = 5): 12.4 nmol/g
- Adipose vitamin E concentration, 50th percentile ([7]; TE supplemented, n = 5): 17.1 nmol/g
- Adipose vitamin E concentration, 75th percentile ([7]; TE supplemented, n = 5): 23.5 nmol/g
- Adipose vitamin E concentration, mean ([7]; TE supplemented, n = 5): 17.2 nmol/g

- Brain vitamin E concentration, 25th percentile [2]: 0.09 nmol/g
- Brain vitamin E concentration, 50th percentile [2]: 0.15 nmol/g
- Brain vitamin E concentration, 75th percentile [2]: 0.17 nmol/g
- Brain vitamin E concentration, mean [2]: 0.13 nmol/g
- concentration in liver tissue relative to that found in adipose [8]: less than 10%
- adipose concentration relative to controls [9]: ~10 fold
Compound: CC(C)=CCC/C(C)=C/CC/C(C)=C/CC[C@]1(C)CCc2cc(O)cc(C)c2O1 [δTE, d-delta-tocotrienol]

Compound: d-alpha-tocotrienol [αTE]
- effect on activity of HMG-CoA reductase (HMG-CoA reductase): suppresses the activity
- affinity of TTP to bind and transport, relative to αTCP [10]: 12%
- Brain vitamin E concentration, 25th percentile [2]: 0.03 nmol/g
- Brain vitamin E concentration, 50th percentile [2]: 0.04 nmol/g
- Brain vitamin E concentration, 75th percentile [2]: 0.05 nmol/g
- Brain vitamin E concentration, mean [2]: 0.04 nmol/g
- concentration in liver tissue relative to that found in adipose [8]: less than 10%
- effect of oral TE supplementation on skin concentration [6]: significantly elevated
- adipose concentration relative to controls [9]: ~10 fold

Reference: patent publication US20130309202A1, “Methods for Improving Liver Function” (The Ohio State University, priority 2012, published 2013)
